Reference: US20040147739A1, “Novel anti-infectives” (priority 2003, published 2004)

target: T1, HCV NS5B (Hepatitis C virus genotype 1b, UniProt P26663); experiment: biochemical; settings: not given
T1 construct: The NS5B protein (591 amino acids, 65 kDa) of HCV
Experimental: The activity of the inventive compounds as inhibitors of HCV activity may be measured by any of the suitable methods known to those skilled in the art, including in vivo and in vitro assays. For example, the HCV NS5B inhibitory activity of the compounds of Formulas I, II and III was determined using standard assay procedures described in Behrens et al., EMBO J. 15:12-22 (1996), Lohmann et al., Virology 249:108-118 (1998) and Ranjith-Kumar et al., J. Virology 75:8615-8623 (2001).
The HCV NS5B inhibitory activity of the compounds of Formulas I, II m and IV was determined using standard procedures well known to those skilled in the art and described in, for example Behrens et al., EMBO J. 15:12-22 (1996), Lohmann et al., Virology 249:108-118 (1998) and Ranjith-Kumar et al., J. Virology 75:8615-8623 (2001).

T1 sequence (P26663 2420-3010): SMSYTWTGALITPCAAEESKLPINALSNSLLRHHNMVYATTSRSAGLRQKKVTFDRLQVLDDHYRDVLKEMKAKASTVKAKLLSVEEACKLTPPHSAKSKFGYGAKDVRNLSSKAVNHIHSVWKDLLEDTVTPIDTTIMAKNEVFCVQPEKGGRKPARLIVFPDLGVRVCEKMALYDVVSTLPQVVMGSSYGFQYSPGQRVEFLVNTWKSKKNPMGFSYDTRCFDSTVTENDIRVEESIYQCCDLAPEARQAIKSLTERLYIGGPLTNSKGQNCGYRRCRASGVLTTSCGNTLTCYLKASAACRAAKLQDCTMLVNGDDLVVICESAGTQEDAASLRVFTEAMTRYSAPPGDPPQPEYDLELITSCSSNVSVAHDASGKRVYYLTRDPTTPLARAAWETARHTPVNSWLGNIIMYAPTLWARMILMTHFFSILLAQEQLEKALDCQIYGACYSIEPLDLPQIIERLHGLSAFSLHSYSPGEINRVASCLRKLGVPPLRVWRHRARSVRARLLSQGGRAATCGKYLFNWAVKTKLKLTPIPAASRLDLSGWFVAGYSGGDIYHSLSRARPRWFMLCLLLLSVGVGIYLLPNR

Structure (SMILES) | IC50
COc1ccc(C(=O)Nc2ccc3c(c2)c(O)c(C2=NS(=O)(=O)c4ccccc4N2)c(=O)n3CCC(C)C)cc1 [Example 37, N-[3-(1,1-Dioxo-1,4-dihydrobenzo[1,2,4]thiadiazin-3-yl)-4-hydroxy-1-(3-methylbutyl)-2-oxo-1,2dihydroquinolin-6-yl]4-methoxybenzamide] | > 10 µM
CCOC(=O)c1ccc2c(c1)c(O)c(C1=NS(=O)(=O)c3ccccc3N1)c(=O)n2CCC(C)C [Example 95, 3-(1, i-Dioxo-1,4-dihydrobenzo[1,2,4]thiadiazin-3-yl)-4-hydroxy-1-(3-methylbutyl)-2-oxo-1,2-dihydroquinoline-6-carboxylic acid ethyl ester] | > 10 µM
COc1ccc(CCNC(=O)c2ccc3c(c2)S(=O)(=O)N=C(c2c(O)c4ccccc4n(CCC4CC4)c2=O)N3)cc1 [Example 102, 3-[1-(2-Cyclopropylethyl)-4-hydroxy-2-oxo-1,2-dihydroquinolin-3-yl]-1,1-dioxo-1,4 dihydroenzo[1,2,4]thiadiazine-7-carboxylic acid [2-(4-methoxyphenyl)ethyl]amide] | > 10 µM
CC(C)CCn1c(=O)c(C2=NS(=O)(=O)c3ccccc3N2)c(O)c2cc(I)ccc21 [Example 185, 3-(1,1-Dioxo-1,4-dihydro-1-benzo[1,2,4]thiadiazin-3-yl)-4-hydroxy-6-iodo-1-(3-methylbutyl)-1H-quinolin-2-one] | > 10 µM
CC(C)CCc1cccc2c(O)c(C3=NS(=O)(=O)c4ccccc4N3)c(=O)[nH]c12 [Example 186, 3-(1,1-Dioxo-1,4-dihydro-1-benzo[1,2,4]thiadiazin-3-yl)-4-hydroxy-8-(3-methylbutyl)-1H-quinolin-2-one] | > 10 µM
CC(C)CCn1c(=O)c(C2=NS(=O)(=O)c3ccccc3N2)c(O)c2c(C(=O)O)cccc21 [Example 188, 3-(1,1-Dioxo-1,4-dihydro-1-benzo[1,2,4]thiadiazin-3-yl)-4-hydroxy-1-(3-methylbutyl)-2-oxo-1,2-dihydro-quinoline-5-carboxylic acid] | > 10 µM

More lines, now with the values ahead:

IC50 | Structure (SMILES)
> 10 µM | O=c1c(C2=NS(=O)(=O)c3ccccc3N2)c(O)c2ccccc2n1CCc1ccccc1 [Example 1]
> 10 µM | N#Cc1ccccc1Cn1c(=O)c(C2=Nc3ccccc3S(=O)(=O)N2)c(O)c2ccccc21 [Example 2, 3-(1,1-Dioxo-1,2-dihydrobenzo[1,2,4]thiadiazin-3-yl)-4-hydroxy-1-(2-cyanobenzyl)-1H-quinolin-2-one]
> 10 µM | O=c1c(C2=NS(=O)(=O)c3ccccc3N2)c(O)c2ccccc2n1CCCc1ccccc1 [Example 3]
> 10 µM | NC(=O)CCCn1c(=O)c(C2=Nc3ccccc3S(=O)(=O)N2)c(O)c2ccccc21 [Example 170, 4-[3-(1,1-Dioxo-1,2-dihydrobenzo[1,2,4]thiadiazin-3-yl)-4-hydroxy-2-oxoquinolin-1-yl]butyramide]
> 10 µM | CC(C)CCn1c(=O)c(C2=Nc3ccccc3S(=O)(=O)N2)c(O)c2ccc(C(=O)O)cc21 [Example 171, 3-(1,1-Dioxo-1,2-dihydrobenzo[1,2,4]thiadiazin-3-yl)-4-hydroxy-1-(3-methylbutyl)-2-oxo-1,2-dihydro-quinoline-7-carboxylic acid]
> 10 µM | CC(C)CCn1c(=O)c(C2=Nc3ccccc3S(=O)(=O)N2)c(O)c2ccc(Br)cc21 [Example 173, 7-bromo-3-(1,1-dioxo-1,2-dihydrobenzo[1,2,4]thiadiazin-3-yl)-4-hydroxy-1-(3-methylbutyl)-1H-quinolin-2-one]
> 10 µM | CC(C)CCn1c(=O)c(C2=NS(=O)(=O)c3cc(I)ccc3N2)c(O)c2ccccc21 [Example 181, 4-Hydroxy-3-(7-iodo-1,1-dioxo-1,4-dihydro-1-benzo[1,2,4]thiadiazin-3-yl)-1-(3-methylbutyl)-1H-quinolin-2-one]
> 10 µM | CCOC(=O)CCCn1c(=O)c(C2=NS(=O)(=O)c3ccccc3N2)c(O)c2ccccc21 [Example 182, 4-[3-(1,1-Dioxo-1,4-dihydro-1-benzo[1,2,4]thiadiazin-3-yl)-4-hydroxy-2-oxo-2H-quinolin-1-yl]-butyric acid ethyl ester]
> 10 µM | O=C(O)CCCn1c(=O)c(C2=Nc3ccccc3S(=O)(=O)N2)c(O)c2ccccc21 [Example 183, 4-[3-(1,1-Dioxo-1,4-dihydro-1-benzo[1,2,4]thiadiazin-3-yl)-4-hydroxy-2-oxo-2H-quinolin-1-yl]-butyric acid]
> 10 µM | CN(C)CCn1c(=O)c(C2=Nc3ccccc3S(=O)(=O)N2)c(O)c2ccccc21 [Example 190, 1-(2-Dimethylamino-ethyl)-3-(1,1-dioxo-1,4-dihydro-1-benzo[1,2,4]thiadiazin-3-yl)-4-hydroxy-1H-quinolin-2-one]
> 10 µM | O=c1c(C2=NS(=O)(=O)c3ccccc3N2)c(O)c2ccccc2n1CCO [Example 193, 3-(1,1-Dioxo-1,4-dihydro-1-benzo[1,2,4]thiadiazin-3-yl)-4-hydroxy-1-(2-hydroxyethyl)-1H-quinolin-2-one]
> 10 µM | Cc1ccc(F)cc1Cn1c(=O)c(C2=NS(=O)(=O)c3ccccc3N2)c(O)c2ccccc21 [Example 195, 3-(1,1-Dioxo-1,4-dihydro-1-benzo[1,2,4]thiadiazin-3-yl)-1-(5-fluoro-2-methyl-benzyl)4-hydroxy-1H-quinolin-2-one]
> 10 µM | O=c1c(C2=Nc3ccccc3S(=O)(=O)N2)c(O)c2ccccc2n1Cc1ccccc1[N+](=O)[O-] [Example 196, 3-(1,1-Dioxo-1,4-dihydro-1-benzo[1,2,4]thiadiazin-3-yl)-4-hydroxy-1-(2-nitro-benzyl)-1H-quinolin-2-one]

same assay, conditions: screening rate of 10 uM

Structure (SMILES) | biological activity at the screening rate of 10 uM
CC(C)CCn1c(=O)c(C2=Nc3ccccc3S(=O)(=O)N2)c(O)c2ccc([N+](=O)[O-])cc21 [Example 198, 3-(1,1-Dioxo-1,2-dihydrobenzo[1,2,4]thiadiazin-3-yl)-4-hydroxy-1-(3-methylbutyl)-7-nitro-1H-quinolin-2-one] | did not demonstrate biological activity
CC(C)CCn1c(=O)c(C2=Nc3ccccc3S(=O)(=O)N2)c(O)c2ccc(Cl)cc21 [Example 199, 7-Chloro-3-(1,1-dioxo-1,2-dihydrobenzo[1,2,4]thiadiazin-3-yl)-4-hydroxy-1-(3-methylbutyl)-H-quinolin-2-one] | did not demonstrate biological activity
NCCCCn1c(=O)c(C2=Nc3ccccc3S(=O)(=O)N2)c(O)c2ccccc21 [Example 200, 1-(4-Aminobutyl)-3-(1,1-dioxo-1,2-dihydrobenzo[1,2,4]thiadiazin-3-yl)-4-hydroxy-1-1H-quinolin-2-one] | did not demonstrate biological activity
O=c1c(C2=Nc3ccccc3S(=O)(=O)N2)c(O)c2ccccc2n1-c1ccccc1 [Example 201, 3-(1,1-Dioxo-1,2-dihydrobenzo[1,2,4]thiadiazin-3-yl)-4-hydroxy-1-phenyl-1H-quinolin-2-one] | did not demonstrate biological activity
CC(C)CCn1c(=O)c(C2=NS(=O)(=O)c3c(Br)cccc3N2)c(O)c2ccccc21 [Example 203, 3-(8-Bromo-1,1-dioxo-1,4-dihydro-1-benzo[1,2,4]thiadiazin-3-yl)-4-hydroxy-1-(3-methylbutyl)-1H-quinolin-2-one] | did not demonstrate biological activity
CC(C)CCn1c(=O)c(C2=NS(=O)(=O)c3ccccc3N2)c(O)c2ccc(/C=C/C(N)=O)cc21 [Example 204, (E)-3-[3-(1,1-Dioxo-1,4-dihydro-1-benzo[1,2,4]thiadiazin-3-yl)-4-hydroxy-1-(3-methylbutyl)-2-oxo-1,2-dihydro-quinolin-7-yl]acrylamide] | did not demonstrate biological activity
CC(C)CCOc1ccc2c(c1)c(O)c(C1=NS(=O)(=O)c3ccccc3N1)c(=O)n2CC(=O)OC(C)(C)C [Example 205, [3-(1,1-Dioxo-1,4-dihydro-1-benzo[1,2,4]thiadiazin-3-yl)-4-hydroxy-6-(3-methyl-butoxy)-2-oxo-2H-quinolin-1-yl]acetic acid tert-butyl ester] | did not demonstrate biological activity
CC(C)CCn1c(=O)c(C2=NS(=O)(=O)c3ccccc3N2)c(O)c2cc(C(=O)N(C)C)ccc21 [Example 206, 3-(1,1-Dioxo-1,4-dihydro-1-benzo[1,2,4]thiadiazin-3-yl)-4-hydroxy-1-(3-methylbutyl)-2-oxo-1,2-dihydro-quinoline-6-carboxylic acid dimethylamide] | did not demonstrate biological activity
O=c1c(C2=NS(=O)(=O)c3ccccc3N2)c(O)c2ccccc2n1CCN1CCCC1 [Example 207, 3-(1,1-Dioxo-1,4-dihydro-1-benzo[1,2,4]thiadiazin-3-yl)-4-hydroxy-1-(2-pyrrolidin-1-yl-ethyl)-1H-quinolin-2-one] | did not demonstrate biological activity
CC(C)(C)c1ccc(Cn2c(=O)c(C3=NS(=O)(=O)c4ccccc4N3)c(O)c3ccccc32)cc1 [Example 208, 1-(4-tert-Butylbenzyl)-3-(1,1-dioxo-1,4-dihydro-1-benzo[1,2,4]thiadiazin-3-yl)-4-hydroxy-1H-quinolin-2-one] | did not demonstrate biological activity

tested on: not given; experiment: not given; settings: not given

melting point | Structure (SMILES)
234 to 236 °C | O=c1c(C2=NS(=O)(=O)c3cc(I)ccc3N2)c(O)c2ccccc2n1CCC1CC1
